Read-outs that look alike come from different tables or passages of the source.
Experiments:
[1] = Solubility in simulated gastric and intestinal fluids; format: physicochemical
Description: The following table (Table 4) illustrates the solubility of two different compounds, NP16-XL-016 (hereinafter as “IM032”) and NP16-XL-061 (hereinafter as “IM032-C”), in two solutions with different pH values simulating the pH of gastric juice and human intestinal fluid using HCl and phosphate buffer respectively.

[2] = tested on: 10 different Staphylococcus aureus (S. aureus) strains; assay: IM032 staphyloxanthin production inhibition, all tested strains; format: cell-based
Experimental: (§1) This study aimed to evaluate IM032 for its in vitro efficacy to inhibit the production of staphyloxanthin in different strains of S. aureus.
Compound IM032 was evaluated for its in vitro efficacy to inhibit staphyloxanthin production in 10 different Staphylococcus aureus (S. aureus) strains, SH1000, HG003, ATCC29213, ATCC700698, COL, JE2, LAC, USA300-3, Newman and ST239III.
(§2) The negative control was dimethyl sulfoxide (DMSO) which was used to prepare stock solutions and dilutions; positive control in this test was S. aureus strain FPR3757 treated with IM032.
The test item was dissolved at 44.9 mg/mL in DMSO at 37° C., aliquoted into several tubes, and stored at −20° C. until use. On the day of testing, a stock solution was serially diluted to testing concentrations with DMSO. […]
Each test item solution (6 μL) was combined with 0.6 mL of S. aureus culture in brain heart infusion broth (CFU per well=1×10^7). […] After centrifugation, 100 μL of supernatant was transferred to a 96-well cell culture plate and OD450 was measured. The relative pigment production at each tested concentration was calculated as follows: […]
The IC50 for each test was determined based on the calculated inhibition ratio from above with Prism 6.0 by employing a non-linear regression (four parameters) fitting method with assigned bottom and top at 0.05 and 0.95 respectively. […]

[3] = tested on: S. aureus COL; assay: IM032 staphyloxanthin production inhibition; format: cell-based; conditions: Staphylococcus aureus, MRSA
Experimental: as §1, §2
(§3) The test item was dissolved at 44.9 mg/mL in DMSO at 37° C., aliquoted into several tubes, and stored at −20° C. until use. On the day of testing, a stock solution was serially diluted to testing concentrations with DMSO. All solutions were vortexed and mixed with a pipette to achieve homogeneity immediately before dilution. A correction factor for purity was not applied to the test item preparations.
(§4) Each test item solution (6 μL) was combined with 0.6 mL of S. aureus culture in brain heart infusion broth (CFU per well=1×10^7). 12-wells repeats were performed for each concentration in 96-well 2-mL plates. The plates were then incubated in a shaker at 37° C., 250 rpm for 24 hours. The bacteria were centrifuged at 4,000 rpm for 10 min. Next, the bacteria from 4-wells were combined and were washed twice with PBS. Staphyloxanthin was extracted with 300 μL of methanol in a water bath at 60° C. for 1 hour. After centrifugation, 100 μL of supernatant was transferred to a 96-well cell culture plate and OD450 was measured. The relative pigment production at each tested concentration was calculated as follows: […]
(§5) The IC50 for each test was determined based on the calculated inhibition ratio from above with Prism 6.0 by employing a non-linear regression (four parameters) fitting method with assigned bottom and top at 0.05 and 0.95 respectively. The IC50 presented is the best-fit value.
(§6) S. aureus strains (ATCC29213, HG003, Mu3, SH1000, and COL) were treated with IM032 at final concentrations of 4,000, 1,000, 250, 63, 16, 4 and 1 nM (FIG. 7A). S. aureus strains (JE2, USA300-3, LAC, ST239III and Newman) were treated with IM032 at final concentrations of 250, 63, 16, 4, 1, 0.2 and 0.06 nM (FIG. 7B). […] The determined IC50 values of the tested strains range from 1.2 to 70 nM (Tables 6 and 7).

[4] = tested on: S. aureus LAC; assay: IM032 staphyloxanthin production inhibition; format: cell-based; conditions: Staphylococcus aureus
Experimental: as §1, §2, §3, §4, §5, §6

[5] = tested on: S. aureus JE2; assay: IM032 staphyloxanthin production inhibition; format: cell-based; conditions: Staphylococcus aureus
Experimental: as §1, §2, §3, §4, §5, §6

[6] = tested on: S. aureus Mu3; assay: IM032 staphyloxanthin production inhibition; format: cell-based; conditions: Staphylococcus aureus
Experimental: as §1, §2, §3, §4, §5, §6

[7] = tested on: S. aureus SH1000; assay: IM032 staphyloxanthin production inhibition; format: cell-based; conditions: Staphylococcus aureus, MSSA
Experimental: as §1, §2, §3, §4, §5, §6

[8] = tested on: S. aureus HG003; assay: IM032 staphyloxanthin production inhibition; format: cell-based; conditions: Staphylococcus aureus, MSSA
Experimental: as §1, §2, §3, §4, §5, §6

[9] = tested on: S. aureus USA300-3; assay: IM032 staphyloxanthin production inhibition; format: cell-based; conditions: Staphylococcus aureus
Experimental: as §1, §2, §3, §4, §5, §6

[10] = tested on: S. aureus ATCC29213; assay: IM032 staphyloxanthin production inhibition; format: cell-based; conditions: Staphylococcus aureus, ATCC 29213 / MSSA
Experimental: as §1, §2, §3, §4, §5, §6

[11] = tested on: S. aureus FPR3757; assay: IM032 staphyloxanthin production inhibition; format: cell-based; conditions: Staphylococcus aureus
Experimental: as §1, §2, §3, §4, §5, §6

[12] = tested on: S. aureus ST239III; assay: IM032 staphyloxanthin production inhibition; format: cell-based; conditions: Staphylococcus aureus, MRSA
Experimental: as §1, §2, §3, §4, §5, §6

[13] = tested on: S. aureus Newman; assay: IM032 staphyloxanthin production inhibition; format: cell-based; conditions: Staphylococcus aureus, MSSA / NEWMAN
Experimental: as §1, §2, §3, §4, §5, §6

## O=C(/C=C/c1ccccc1Br)Nc1ccc(S(=O)(=O)N2CCCCC2)cc1 [NP16-XL-016, 3-(6-bromophenyl)-N-[4-(1-piperidine-1-sulfonyl)phenyl]-acrylamide]
[1]; 0.1N HCl + 0.1% Tween 80 (simulated gastric fluid), pH 2, aqueous with cosolvent or surfactant or cyclodextrin, read-out: Solubility in pH 2 (0.1N HCl + 0.1% Tween 80)-simulating human stomach
  solubility: 2.03 µg/mL
[1]; pH 7.4, aqueous with cosolvent or surfactant or cyclodextrin, read-out: Solubility in pH 7.4 (KH2PO4 + 0.1% Tween 80)-simulating human intestine
  solubility: 1.74 µg/mL
[1]; two biorelevant media, pH 2 and pH 7.4
  solubility higher than that of IM032-Cl: > 20 ×
[2]; Staphylococcus aureus, all 10 tested strains, read-out: IC50 of staphyloxanthin production inhibition, range over tested strains
  IC50: 1.2 to 70 nM
[2]; any concentration of IM032, up to 4,000 nM
  bactericidal effect (reduction in optical density): A clear bactericidal effect as evidenced by a reduction in optical density was not observed
[3]; Table 6, MRSA (HA)
  IC50: 1.2 nM
[3]; Table 8, HA-MRSA
  IC50: 0.9 ± 1 nM
[4]; MRSA
  IC50: 27 nM
[4]; MRSA / USA300
  IC50: 43.6 ± 5 nM
[5]; / USA300
  IC50: 37.7 ± 4 nM
[5]; MRSA
  IC50: 26 nM
[6]; MU3
  IC50: 1.8 nM
[6]; VISA
  IC50: 2.6 ± 1 nM
[7]; Table 6
  IC50: 70 nM
[7]; Table 8
  IC50: 70.5 ± 6 nM
[8]; Table 6
  IC50: 46 nM
[8]; Table 8
  IC50: 54.4 ± 4 nM
[9]; MRSA / USA300, Table 7, USA300-3, MRSA (HA)
  IC50: 27 nM
[9]; MRSA / USA300, Table 8, USA300-3, HA-MRSA
  IC50: 42.8 ± 6 nM
[10]; Table 6
  IC50: 18 nM
[10]; Table 8
  IC50: 30 ± 5 nM
[11]; FPR3757, FPR3757, previous study
  IC50: 17 nM
[11]; MRSA / USA300, Table 8, USA300 (FPR-3757), CA-MRSA
  IC50: 30.8 ± 5 nM
[11]; MRSA, Table 6, first experiment, FPR3757, MRSA (CA), positive control
  IC50: 20 nM
[11]; MRSA, Table 7, second experiment, FPR3757, MRSA (CA), positive control
  IC50: 28 nM
[12]; Table 7, ST239III, MRSA (HA)
  IC50: 19 nM
[12]; Table 8, Clinical isolate ST239III, HA-MRSA
  IC50: 16.3 ± 8 nM
[13]; Table 7
  IC50: 21 nM
[13]; Table 8
  IC50: 23.7 ± 1 nM
